The source of these data is US20240199647A1, “ANTI-VIRAL COMPOUNDS” (Aligos Therapeutics, Inc., priority 2022, published 2024).

SMILES strings stand for the structures.

Broadly, the EC50 is the concentration needed to bring the measured effect to its halfway point. A word on the IC50: it is the midpoint of a concentration-inhibition curve.

Data set [1] is described as follows: Cytotoxicity in HeLa cells without addition of OC43 virus (in parallel). The conditions noted are these: human, HeLa cells, without OC43 virus.
Data set [2] can be described thus: in vitro. The conditions noted are these: human.
Data set [3] relates to human beta-coronavirus OC43. Briefly: OC43 Coronavirus Assay in HeLa cells (antiviral, cytopathic effect, cell-titer-glo). The format is cell-based. The conditions noted are these: Betacoronavirus 1, OC43, HeLa, Table B; OC43 coronavirus in HeLa cells, class symbols; read-out: EC50. On the technique in general: Cytopathic effects are the visible damage that an infection or toxin causes in cultured cells.

Data set [4] deals with SARS-Cov-2 3CLpro (Severe acute respiratory syndrome coronavirus 2, UniProt P0DTD1). The experiment in a line: biochemical. Conditions: Table A, class symbols, read-out: SARS-Cov-2 (IC50).
Data set [5] has as its system SARS-CoV-2 B.1.1.7 lineage. The experiment in a line: microbe, parasite or virus in culture. Conditions: Severe acute respiratory syndrome coronavirus 2; Table C; SARS-CoV-2 B.1.1.7 in A549-dual_ACE2_TMPRSS2 cells, class symbols; read-out: A549-dual_ACE2_TMPRSS2 (EC50). In kind it is cell-based.

In data set [1], `CN(C(=O)[C@@H](NC(=O)C(F)(F)F)C1CC1)[C@@H](CC1CC1)C(=O)N1C[C@@]2(C[C@H]1C#N)Oc1cccnc1NC2=O` [Compound 179] had a CC50 at 6 days above 10000 nM. Besides, in data set [2], the CC50 is above 1000 nM. The half-maximal effective concentration (EC50) in data set [3] is below 100 nM; in data set [5], 100 to 1000 nM. The IC50 in data set [4] was below 20 nM.
In the case of `C[C@H](NC(=O)C(F)(F)F)C(=O)N(C)[C@@H](Cc1ccc(F)cc1)C(=O)N1C[C@@]2(C[C@H]1C#N)Oc1cccnc1NC2=O` [Compound 181], the CC50 at 6 days in data set [1] is above 10000 nM. For the same compound, the CC50 in data set [2] is above 1000 nM. For the same compound, the EC50 in data set [3] was 1000 to 10000 nM; in data set [5], 100 to 1000 nM. Also, the IC50 in data set [4] is below 20 nM.
`CN(C(=O)[C@H](CC1CC1)NC(=O)C(F)(F)F)[C@@H](CC1CC1)C(=O)N1C[C@@]2(C[C@H]1C#N)Oc1ccccc1NC2=O` [Compound 182] yielded a CC50 at 6 days in data set [1] above 10000 nM. For the same compound, the CC50 in data set [2] is above 1000 nM. The half-maximal effective concentration (EC50) in data set [3] and in data set [5] was below 100 nM each time. The IC50 in data set [4] was below 20 nM.
In turn, `C[C@H](NC(=O)C(F)(F)F)C(=O)N(C)[C@@H](CC1(C)CC1)C(=O)N1C[C@@]2(C[C@H]1C#N)Oc1cccnc1NC2=O` [Compound 183] yielded a CC50 at 6 days in data set [1] above 10000 nM. This compound came in with a CC50 in data set [2] above 1000 nM. Moreover, the results for the 50% effective concentration (EC50) in data set [3] and in data set [5] were below 100 nM and 100 to 1000 nM, respectively. For the same compound, the half-maximal inhibitory concentration (IC50) in data set [4] is below 20 nM.
`CN(C(=O)[C@H](CC1CC1)NC(=O)C(F)(F)C(F)(F)F)[C@@H](CC1CC1)C(=O)N1C[C@@]2(C[C@H]1C#N)Oc1ncccc1NC2=O` [Compound 184]: the CC50 at 6 days in data set [1] is above 10000 nM. In data set [2], this compound returned a CC50 above 1000 nM. Moreover, the concentration giving a half-maximal response (EC50) in data set [3] and in data set [5] was below 100 nM throughout. Further, the IC50 in data set [4] was below 20 nM.
On to `CN(C(=O)[C@H](CC1CC1)NC(=O)C1(F)CC1)[C@@H](CC1CC1)C(=O)N1C[C@@]2(C[C@H]1C#N)Oc1ncccc1NC2=O` [Compound 185], for which the CC50 at 6 days in data set [1] is above 10000 nM. Further, the CC50 in data set [2] is above 1000 nM. For the same compound, the values for the concentration giving a half-maximal response (EC50) in data set [3] and in data set [5] were below 100 nM and 100 to 1000 nM, respectively. Also, the IC50 in data set [4] is below 20 nM.
In data set [1], `CN(C(=O)[C@H](CC1CC(F)(F)C1)NC(=O)C(F)(F)F)[C@@H](CC1CC1)C(=O)N1C[C@@]2(C[C@H]1C#N)Oc1cccnc1NC2=O` [Compound 187] returned a CC50 at 6 days above 10000 nM. The compound also gave a CC50 in data set [2] above 1000 nM. The values for the EC50 in data set [3] and in data set [5] were below 100 nM and 100 to 1000 nM, respectively. Besides, the IC50 in data set [4] is below 20 nM.
`CN(C(=O)[C@H](CC(C)(C)C)NC(=O)C(F)(F)F)[C@@H](CC1CC1)C(=O)N1C[C@@]2(C[C@H]1C#N)Oc1cccnc1NC2=O` [Compound 188] registered a CC50 at 6 days in data set [1] above 10000 nM. In data set [2], this compound displayed a CC50 above 1000 nM. Besides, the half-maximal effective concentration (EC50) in data set [3] and in data set [5] was below 100 nM throughout. Also, the half-inhibitory concentration (IC50) in data set [4] is below 20 nM.
In data set [1], `CN(C(=O)[C@H](CC(F)(F)F)NC(=O)C(F)(F)F)[C@@H](CC1CC1)C(=O)N1C[C@@]2(C[C@H]1C#N)Oc1cccnc1NC2=O` [Compound 189] came in with a CC50 at 6 days above 10000 nM. Besides, the CC50 in data set [2] was above 1000 nM. In addition, the EC50 in data set [3] and in data set [5] was 100 to 1000 nM each time. For the same compound, the half-maximal inhibitory concentration (IC50) in data set [4] fell in the range of 20 to 200 nM.
For `CN(C(=O)[C@H](COC(C)(C)C)NC(=O)C(F)(F)F)[C@@H](CC1CC1)C(=O)N1C[C@@]2(C[C@H]1C#N)Oc1cccnc1NC2=O` [Compound 190], the CC50 at 6 days in data set [1] was above 10000 nM. Also, the CC50 in data set [2] was above 1000 nM. The EC50 in data set [3] is below 100 nM; in data set [5] it was 100 to 1000 nM. For the same compound, the IC50 in data set [4] is below 20 nM.
In data set [1], `CN(C(=O)[C@H](COCc1ccccc1)NC(=O)C(F)(F)F)[C@@H](CC1CC1)C(=O)N1C[C@@]2(C[C@H]1C#N)Oc1cccnc1NC2=O` [Compound 191] displayed a CC50 at 6 days above 10000 nM. The CC50 in data set [2] is above 1000 nM. In addition, the EC50 in data set [3] was below 100 nM; in data set [5], 100 to 1000 nM. The IC50 in data set [4] was below 20 nM.
The corresponding values for `C[C@H](OCc1ccccc1)[C@H](NC(=O)C(F)(F)F)C(=O)N(C)[C@@H](CC1CC1)C(=O)N1C[C@@]2(C[C@H]1C#N)Oc1cccnc1NC2=O` [Compound 192] are above 10000 nM, above 1000 nM, 100 to 1000 nM, 100 to 1000 nM and 20 to 200 nM.
The corresponding values for `C[C@H](c1ccccc1)[C@H](NC(=O)C(F)(F)F)C(=O)N(C)[C@@H](CC1CC1)C(=O)N1C[C@@]2(C[C@H]1C#N)Oc1cccnc1NC2=O` [Compound 193] are above 10000 nM, above 1000 nM, 100 to 1000 nM, 100 to 1000 nM and 20 to 200 nM.
Regarding `CN(C(=O)[C@@H](NC(=O)C(F)(F)F)C1CC1)[C@@H](CC1CC1)C(=O)N1C[C@@]2(C[C@H]1C#N)Oc1cc(F)cc(F)c1NC2=O` [Compound 194], in data set [1], the CC50 at 6 days was above 10000 nM. Further, in data set [2], the CC50 is above 1000 nM. Also, the EC50 in data set [3] and in data set [5] was below 100 nM in each case. Moreover, the concentration for half-maximal inhibition (IC50) in data set [4] is below 20 nM.
In turn, `C[C@H](NC(=O)c1ccc(F)cc1)C(=O)N(C)[C@@H](CC1CC1)C(=O)N1C[C@@]2(C[C@H]1C#N)Oc1cccnc1NC2=O` [Compound 195] yielded a CC50 at 6 days in data set [1] above 10000 nM. The compound further gave a CC50 in data set [2] above 1000 nM. Moreover, the EC50 in data set [3] and in data set [5] was 100 to 1000 nM throughout. Also, the IC50 in data set [4] was below 20 nM.
In turn, `C[C@@H](OC(C)(C)C)[C@H](NC(=O)C(F)(F)F)C(=O)N(C)[C@@H](CC1CC1)C(=O)N1C[C@@]2(C[C@H]1C#N)Oc1cccnc1NC2=O` [Compound 196] returned a CC50 at 6 days in data set [1] above 10000 nM. The CC50 in data set [2] was above 1000 nM. The EC50 is below 100 nM in data set [3] and 100 to 1000 nM in data set [5]. Besides, the concentration for half-maximal inhibition (IC50) in data set [4] is below 20 nM.
In data set [1], `CN(C(=O)[C@H](CC1CC1)NS(=O)(=O)c1ccc(F)cc1)[C@@H](CC1CC1)C(=O)N1C[C@@]2(C[C@H]1C#N)Oc1cccnc1NC2=O` [Compound 197] gave a CC50 at 6 days above 10000 nM. The CC50 in data set [2] was above 1000 nM. Also, the EC50 in data set [3] is below 100 nM; in data set [5] it was 100 to 1000 nM. Further, the half-inhibitory concentration (IC50) in data set [4] is below 20 nM.
In data set [1], `CN(C(=O)[C@H](CC1CC1)NS(=O)(=O)C1(C)CC1)[C@@H](CC1CC1)C(=O)N1C[C@@]2(C[C@H]1C#N)Oc1cccnc1NC2=O` [Compound 198] had a CC50 at 6 days above 10000 nM. Moreover, the CC50 in data set [2] was above 1000 nM. Further, the EC50 in data set [3] was below 100 nM; in data set [5], 100 to 1000 nM. Further, the IC50 in data set [4] is below 20 nM.
The corresponding values for `CN(C(=O)[C@H](CC1CC1)NC(=O)C(F)(F)F)[C@@H](CC1CC1)C(=O)N1C[C@@]2(C[C@H]1C#N)Oc1c(F)cc(F)cc1CNC2=O` [Compound 199] are above 10000 nM, above 1000 nM, below 100 nM, 100 to 1000 nM and below 20 nM.
In turn, `CN(C(=O)[C@@H](Cc1ccc(F)cc1)NC(=O)C(F)(F)F)[C@@H](CC1CC1)C(=O)N1C[C@@]2(C[C@H]1C#N)Oc1cccnc1NC2=O` [Compound 200] showed a CC50 at 6 days in data set [1] above 10000 nM. The CC50 in data set [2] was above 1000 nM. In addition, the concentration for a half-maximal effect (EC50) was 100 to 1000 nM in data set [3] and below 100 nM in data set [5]. For the same compound, the IC50 in data set [4] is below 20 nM.
